Measurements published in US12473270B2, “CB1R receptor blockers with acyclic backbones” (YISSUM RESEARCH DEVELOPMENT COMPANY OF THE HEBREW …, priority 2019, dated 2025).
pKi: −log10 of the molar value. Read-outs that look alike come from different tables or passages of the source. Each block holds one compound with its values, some of them ahead of it.

Key:
mice [1] = test: Antagonizing cannabinoid (HU-210)-induced hypomotility; type: in vivo, mouse; conditions: for increase in immobility induced by HU-210: HU-210 30 μg/kg ip, rimonabant 10 mg/kg ip, BNS-002 10, 20 and 50 mg/kg
Description: (§1) Locomotor activity. Locomotor activity was quantified by the number of disruptions of infrared XYZ beam arrays with a beam spacing of 0.25 cm in the Promethion High-Definition Behavioral Phenotyping System (Sable Instruments, Inc., Las Vegas, NV, USA).
Antagonizing cannabinoid-induced hypomotility. The ability of the different compounds to inhibit the hypomotility induced by HU210 (cannabinoid agonist) was evaluated. […] A half an hour thereafter, mice received a single dose of HU210 (30 ug/kg, IP) and their locomotor activity was evaluated as described above.

[2] = Tissue levels of antagonists (brain penetrance); type: in vivo, mouse; conditions: mice, 3 and 10 mg/kg ip, 1 hour
Description: Tissue levels of antagonists. […] Blood was collected, and the mice were perfused with phosphate buffered saline for 1 min to remove drug from the intravascular space before removing the brain and liver. Drug levels in tissue homogenates and plasma were determined by using LC-MS/MS.

[3] = test system: mice with diet-induced obesity (DIO); test: HFD-induced kidney hyperfiltration; type: in vivo, mouse
Description: (§2) Blood and urine biochemistry. Serum and urine levels of creatinine as well as serum levels of ALT, AST, ALP, HDL, LDL, TG and cholesterol were determined by using the Cobas C-111 chemistry analyzer (Roche, Switzerland). Creatinine clearance was calculated using urine and serum creatinine levels (CCr mL/h=Urine creatinine mg/dL×Urine volume/Serum creatinine mg/dL×24 hrs). Serum insulin levels were measured by an ELISA kit (Crystal Chem, Inc., Downers Grove, IL, USA). Fasting blood glucose was measured using the Elite glucometer (Bayer, Pittsburgh, PA).

[4] = test system: mice with diet-induced obesity (DIO); test: HFD-induced hepatic steatosis and liver injury; type: in vivo, mouse; conditions: for HFD-induced hepatic steatosis (fat vacuoles in the liver): DIO mice, 10 mg/kg/d ip
Description: as §2
Histopathological Analyses. 5 μm paraffin-embedded liver sections from 5 animals per group were stained with hematoxylin-eosin staining. Liver images were captured with a Zeiss AxioCam ICc5 color camera mounted on a Zeiss Axio Scope.A1 light microscope and taken from 10 random 40× fields of each animal.

[5] = test system: mice with diet-induced obesity (DIO); test: Multi-parameter metabolic assessment (indirect calorimetry) in DIO mice; type: in vivo, mouse; conditions: for HFD-induced reduction in VO2 / HFD-induced reduction in fat oxidation / HFD-induced reduction in total energy expenditure: DIO mice, 10 mg/kg/d ip
Description: Multi-parameter metabolic assessment. Metabolic profile of the mice was assessed by using the Promethion High-Definition Behavioral Phenotyping System (Sable Instruments, Inc., Las Vegas, NV, USA). Data acquisition and instrument control were performed using MetaScreen software version 2.2.18.0, and the obtained raw data were processed using ExpeData version 1.8.4 using an analysis script detailing all aspects of data transformation. Mice with free access to food and water were subjected to a standard 12 h light/12 h dark cycle, which consisted of a 48 h acclimation period followed by 24 h of sampling. Respiratory gases were measured by using the GA-3 gas analyzer (Sable Systems, Inc., Las Vegas, NV, USA) using a pull-mode, negative-pressure system. Air flow was measured and controlled by FR-8 (Sable Systems, Inc., Las Vegas, NV, USA), with a set flow rate of 2000 mL/min. Water vapor was continuously measured and its dilution effect on O2 and CO2 was mathematically compensated. Effective mass was calculated by [body mass]^0.75. Fat oxidation (FO) and carbohydrate oxidation (CHO) were calculated as FO=1.69×VO2−1.69×VCO2 and CHO=4.57×VCO2−3.23×VO2 and expressed as g/d/kg^eff.Mass.

CB1 receptor [6] = target: T1, CB1 receptor (Mus musculus, UniProt P47746); test: [3H]CP-55,940 radioligand displacement assay; type: binding
T1 construct: crude membranes from mouse brain for CB1 receptor; from tissue; host or cells: mouse brain membranes (crude / P2)
T1 sequence (P47746 whole entry): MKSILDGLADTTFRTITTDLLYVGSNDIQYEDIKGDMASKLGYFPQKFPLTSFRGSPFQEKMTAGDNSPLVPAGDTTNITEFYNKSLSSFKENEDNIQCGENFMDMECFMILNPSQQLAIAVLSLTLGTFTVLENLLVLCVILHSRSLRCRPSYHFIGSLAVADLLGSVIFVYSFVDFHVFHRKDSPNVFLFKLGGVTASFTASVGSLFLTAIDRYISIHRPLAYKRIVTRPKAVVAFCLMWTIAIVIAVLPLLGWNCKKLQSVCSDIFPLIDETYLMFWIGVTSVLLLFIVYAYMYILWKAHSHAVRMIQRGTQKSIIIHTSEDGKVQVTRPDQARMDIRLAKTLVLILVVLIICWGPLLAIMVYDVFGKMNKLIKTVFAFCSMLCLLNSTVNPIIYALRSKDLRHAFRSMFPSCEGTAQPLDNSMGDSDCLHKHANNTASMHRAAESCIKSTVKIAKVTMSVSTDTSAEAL
Description: Radioligand binding assays. BNS-002 binding to CB1 receptor was assessed in competition displacement assays using [^3H]CP-55,940 as the radioligand and crude membranes from mouse brain for CB1 receptor. All data were in triplicates with Ki values determined from three independent experiments.
Radioligand binding assay. Binding of the tested compounds to CB1 receptor was assessed in competition displacement assays using [3H]CP-55,940 as the radioligand and crude membranes from mouse brain for CB1 receptor. Membranes were extracted according to an established protocol previously described by Catani V. M. and Gasperi V.. Compounds were tested at different concentrations (10-5M-10-11M) and their ability to displace [3H]CP-55,940 was evaluated. Membranes with bound [3H]CP-55,940 were separated and washed from free ligand by vacuum filtration and bound [3H]CP-55,940 radioactivity was measured using a […]. All data were in triplicates with Ki values extracted by nonlinear regression analysis using GraphPad Prism software.

[7] = test system: mice with diet-induced obesity (DIO); test: Body weight, adiposity and food intake in diet-induced obese mice; type: in vivo, mouse
From the text: Mice. The experimental protocol used was approved by the Institutional Animal Care and Use Committee of the Hebrew University, which is an AAALAC International accredited institute. Male 6 week old C57Bl/6J mice were obtained from Harlan Laboratories. Mice were maintained under a 12-h light/dark cycle and fed ad libitum. To generate diet-induced obesity, C57Bl6/J mice were fed either a high-fat diet (HFD) (60% of calories from fat, 20% from protein, and 20% from carbohydrates; Research Diet, D12492) or a standard laboratory diet (STD, 14% fat, 24% protein, 62% carbohydrates; NIH-31 rodent diet) for 14 weeks.
Age-matched control mice on STD received vehicle daily. Body weight and food intake were monitored daily. Total body fat and lean masses were determined by EchoMRI-100H™ (Echo Medical Systems LLC, Houston, TX, USA). 24 h urine was collected one week before euthanasia using mouse metabolic cages (CCS2000 Chiller System, Hatteras Instruments, NC, USA). At weeks 20 mice were euthanized by a cervical dislocation under anesthesia, the kidneys, brain, liver, fat pads, and muscles were removed and weighed, and samples were either snap-frozen or fixed in buffered 4% formalin Trunk blood was collected for determining the biochemical parameters.

CB1 receptor [8] = target: T1, CB1 receptor; test: [35S]GTPγS binding in mouse brain membranes; type: biochemical
Description: [^35S]GTPγS binding. Mouse brains were dissected and P2 membranes prepared and resuspended at ˜6 μg protein/μL in 1 ml assay buffer (50 mM Tris HCl, 9 mM MgCl2, 0.2 mM EGTA, 150 mM NaCl; pH 7.4). […] Briefly, membranes (10 μg protein) were incubated in assay buffer containing 100 μM GDP, 0.05 nM [^35S]GTPγS, test compounds at 1 nM-1 μM, and 1.4 mg/mL fatty acid-free BSA in siliconized glass tubes. Bound ligand was separated from free by vacuum filtration. Non-specific binding was determined using 10 μM GTPS. Basal binding was assayed in the absence of the ligand and in the presence of GDP.

[9] = test system: mice with diet-induced obesity (DIO); test: Glycemic control (ipGTT, ipIST, glucose, insulin) in DIO mice; type: in vivo, mouse; conditions: for HFD-induced glucose intolerance / HFD-induced hyperglycemia: DIO mice, 10 mg/kg/d ip
Description: Glucose tolerance (ipGTT) test and insulin sensitivity tests (ipIST). Mice that fasted overnight were injected with glucose (1.5 g/kg, ip), followed by a tail blood collection at 0, 15, 30, 45, 60, 90, and 120 minutes. Blood glucose levels were determined using the Elite glucometer (Bayer, Pittsburgh, PA). On the following day, mice were fasted for 6 h before receiving insulin (0.75 U/kg, i.p.; Eli Lilly, […], USA or Actrapid® vial, novo nordisk A/S, Denmark), and blood glucose levels were determined at the same intervals as above.
as §2

mice [10] = test: Centrally-mediated hyperactivity / activity profile; type: in vivo, mouse; conditions: for activity profile / hyperactivity vs vehicle group: single dose IP: rimonabant 10, TMP 35, EST 40, IDB 20 mg/kg
Description: as §1
as §1, with “Centrally-mediated hyperactivity profile. […] Mice were placed in metabolic cages and their activity profile was evaluated.” for “Locomotor activity.”

[11] = test system: mice with diet-induced obesity (DIO); test: Serum lipids (dyslipidemia) in DIO mice; type: in vivo, mouse; conditions: 20 mg/kg/day for 20 days
Description: as §2

[12] = [3H]CP-55,940, crude membranes from mouse brain, read-out: Ki for CB1 receptor
[13] = 7 days, rimonabant 10 mg/kg/d, BNS-002 30 mg/kg ip
[14] = DIO mice, 20 mg/kg/day for 20 days
[15] = mice on high-fat diet, 20 mg/kg/day for 20 days

increase in immobility induced by HU-210 (mice [1]): unaffected
brain levels [2]: reduced
brain penetrance [2]: markedly reduced
serum levels [2]: increased
pKi (CB1 receptor [6]; [12]): 8.30
affinity for CB1 receptor (in words) (CB1 receptor [6]; radioligand displacement): retains high affinity and selectivity
functional profile by GTPγS binding (inverse agonism) (CB1 receptor [8]): inverse agonist
GTPγS binding in mouse brain membranes (CB1 receptor [8]; compound alone): reduces GTPγS binding
action of the potent CB1 receptor agonist HU-210 on GTPγS binding (CB1 receptor [8]; with HU-210): able to ameliorate
Compound: CCCCCCCCCCCCCCCCCCNC(=O)c1nn(-c2ccc(Cl)cc2Cl)c(-c2ccc(Cl)cc2)c1C [BNS-002, 5-(4-chlorophenyl)-1-(2,4-dichlorophenyl)-4-methyl-N-octadecyl-1H-pyrazole-3-carboxamide]
HFD-induced kidney hyperfiltration ([3]; BNS-002): completely normalized
HFD-induced hepatic steatosis (fat vacuoles in the liver) [4]: partially
HFD-induced reduction in VO2 [5]: upregulate
HFD-induced reduction in fat oxidation [5]: upregulate
HFD-induced reduction in total energy expenditure [5]: upregulate
increased adiposity of mice on HFD ([7]; 10 mg/kg/d ip, 28 days): significantly reduced by rimonabant only
overweight of mice on HFD ([7]; 10 mg/kg/d ip, 28 days): significantly reduced by rimonabant only
body weight reduction ([7]; 7 days, BNS-002 15 mg/kg ip): no effect
overweight of mice on HFD [7, 13]: significantly reduced
HFD-induced glucose intolerance [9]: completely reversed
HFD-induced hyperglycemia [9]: completely reversed

pKi (CB1 receptor [6]; [3H]CP-55,940, crude membranes from mouse brain, range of Ki values (FIGS. 12-14), read-out: Ki values varying for each substance, ranging from): 6.87 to 8.72
pKi (CB1 receptor [6]; [12]): 6.59
functional profile by GTPγS binding (inverse agonism) (CB1 receptor [8]): inverse agonism profile
activity profile / hyperactivity vs vehicle group (mice [10]): no significant hyperactivity
Compound: COC1=C(OC)C(=O)C(CCCCCCCCCCOC(=O)c2nn(-c3ccc(Cl)cc3Cl)c(-c3ccc(Cl)cc3)c2C)=C(C)C1=O [IDB, 10-(4,5-dimethoxy-2-methyl-3,6-dioxocyclohexa-1,4-dien-1-yl)decyl 5-(4-chlorophenyl)-1-(2,4-dichlorophenyl)-4methyl-1H-pyrazole-3-carboxylate]
HFD-induced kidney hyperfiltration ([3]; IDB, compared to the control): no effect
HFD-induced hepatic steatosis and liver injury ([4]; 20 mg/kg/day for 20 days): reduce
liver enzymes (AST, ALT, and ALP) ([4]; 20 mg/kg/day for 20 days): reduction
liver weight ([4]; 20 mg/kg/day for 20 days): decrease
dyslipidemia in DIO mice [11]: improve
HDL ([11]; DIO mice): reduce
HDL-to-LDL ratio ([11]; DIO mice): increase
LDL ([11]; DIO mice): reduce
total cholesterol ([11]; DIO mice): reduce
triglycerides ([11]; DIO mice): reduce
metabolic parameters (respiratory quotient, VO2, VCO2, total energy expenditure, fat oxidation, carbohydrate oxidation) ([5]; 20 mg/kg/day for 20 days, over a 24 hr period): significant changes
body weight [7, 14]: reduced
daily and total food intake [7, 14]: reduced
fat mass [7, 14]: reduced
lean mass [7, 14]: increased
fasting glucose levels [9, 15]: reduced
fed glucose levels [9, 15]: reduced
glucose tolerance [9, 15]: reduced
glycosuria [9, 15]: increases
insulin sensitivity [9, 15]: improved

hypomotility induced by HU210 (mice [1]; HU210 30 ug/kg IP, rimonabant 10, TMP 35, EST 40, IDB 20 mg/kg IP): significantly blocked
increase in immobility induced by HU-210 (mice [1]): completely blocked
activity profile in mice (mice [10]; rimonabant 10 mg/kg ip, BNS-002 10, 20 and 50 mg/kg ip): marked increase
activity profile / hyperactivity vs vehicle group (mice [10]): marked increase
Compound: Cc1c(C(=O)NN2CCCCC2)nn(-c2ccc(Cl)cc2Cl)c1-c1ccc(Cl)cc1 [rimonabant, reference compound]
HFD-induced hepatic steatosis (fat vacuoles in the liver) [4]: completely reversed
HFD-induced reduction in VO2 [5]: upregulate
HFD-induced reduction in fat oxidation [5]: upregulate
HFD-induced reduction in total energy expenditure [5]: upregulate
increased adiposity of mice on HFD ([7]; 10 mg/kg/d ip, 28 days): significantly reduced
overweight of mice on HFD ([7]; 10 mg/kg/d ip, 28 days): significantly reduced
overweight of mice on HFD [7, 13]: significantly reduced
total caloric intake ([7]; DIO mice, 10 mg/kg/d ip): ability to reduce
HFD-induced glucose intolerance [9]: completely reversed
HFD-induced hyperglycemia [9]: completely reversed

The next lines start with the compound.

Compound: Cc1c(C(=O)OC2CC(C)(C)N([O])C(C)(C)C2)nn(-c2ccc(Cl)cc2Cl)c1-c1ccc(Cl)cc1 [EST, 2,2,6,6-tetramethyl-1-piperidin-4-yl 5-(4-chlorophenyl)-1-(2,4-dichlorophenyl)-4-methyl-1H-pyrazole-3-carboxylate]
pKi (CB1 receptor [6]): 8.11 to 9.43
activity profile / hyperactivity vs vehicle group (mice [10]): no significant hyperactivity

Compound: Cc1c(C(=O)NC2CC(C)(C)N([O])C(C)(C)C2)nn(-c2ccc(Cl)cc2Cl)c1-c1ccc(Cl)cc1 [TMP, 5-(4-chlorophenyl)-1-(2,4-dichlorophenyl)-4-methyl-N-(2,2,6,6-tetramethyl-1-oxo-1-piperidin-4-yl)-1H-pyrazole-3-carboxamide]
pKi (CB1 receptor [6]): 6.35 to 8.77
activity profile / hyperactivity vs vehicle group (mice [10]): no significant hyperactivity
